From patent publication US7598258B2, “Quinoline derivatives and quinazoline derivatives inhibiting autophosphorylation of macrophage colony stimulating factor receptor” (Kirin Beer Kabushiki Kaisha, priority 2002, dated 2009)

Molecular target: T1, Human KDR (Homo sapiens, UniProt P35968)
T1 construct: expressed in transfected cells; host or cells: NIH3T3 cells (mouse fibroblasts)
Experiment: Inhibition of KDR phosphorylation in human KDR-transfected NIH3T3 cells (ELISA)
Type: cell-based
Conditions: for Selection ratio (KDR phosphorylation IC50 / c-fms phosphorylation IC50): class 0-3; for IC50: human KDR-transfected NIH3T3 cells, VEGF 100 ng/ml, ELISA, read-out: KDR phosphorylation 50% inhibitory concentration (IC50)
Method: Human KDR-transfected NIH3T3 cells (Sawano A et al., Cell Growth & Differentiation, 7, 213-221 (1996)) were cultured in a DMEM medium containing 10% fetal calf serum (purchased from GIBCO BRL) within a 5% carbon dioxide incubator until 50 to 70% confluent. The harvested cells were seeded into wells, containing the same medium, in a collagen type 1 coat 96-well flat-bottom plate in an amount of 1.5×10^4 per well, and cultured at 37° C. overnight. The medium was replaced with a 0.1% fetal calf serum-containing DMEM medium. The test compound dissolved in dimethyl sulfoxide was added to each well, and the cultivation was continued at 37° C. for additional one hr. A human recombinant vascular endothelial growth factor (hereinafter abbreviated to “VEGF”) was added to a final concentration of 100 ng/ml, followed by stimulation of cells at 37° C. for 2 min. The medium was removed, and the cells were washed with phosphate buffered saline (pH 7.4). A solubilization buffer (50 μl) (20 mM HEPES (pH 7.4), 150 mM NaCl, 0.2% Triton X-100, 10% glycerol, 5 mM sodium orthovanadylate, 5 mM disodium ethylenediaminetetraacetate, and 2 mM Na4P2O7) was then added thereto. The mixture was shaken at 4° C. for 2 hr to prepare a cell extract.
Separately, phosphate buffered saline (50 μl, pH 7.4) containing 5 μg/ml of anti-phospho-tyrosine antibody (PY20; purchased from Transduction Laboratories) was added to a microplate for ELISA (Maxisorp; purchased from NUNC), followed by standing at 4° C. overnight to be immobilized on the wells. After washing of the plate, 300 μl of a blocking solution was added, followed by standing at room temperature for 2 hr to perform blocking. After washing, the whole cell extract was transferred and was allowed to stand at 4° C. overnight. After washing, an anti-KDR antibody (purchased from Santa Cruz Biotechnology) was allowed to react at room temperature for one hr. Further, after washing, a peroxidase-labeled anti-rabbit Ig antibody (purchased from Amersham) was allowed to react at room temperature for one hr. After washing, a chromophoric substrate for peroxidase (purchased from Sumitomo Bakelite Co., Ltd.) was added thereto to initiate a reaction. After a suitable level of color development, a reaction termination solution was added to stop the reaction, and the absorbance at 450 nm was measured with a microplate reader. The KDR phosphorylation activity for each well was determined by presuming the absorbance without the addition of the test compound and with the addition of VEGF to be 100% KDR phosphorylation activity and the absorbance without the addition of the test compound and VEGF to be 0% KDR phosphorylation activity. The concentration of the test compound was varied on several levels, the KDR phosphorylation inhibitory rate was determined for each case, and the concentration of the test compound necessary for inhibiting 50% of KDR phosphorylation (IC50) was calculated.

T1 sequence (P35968 20-1356): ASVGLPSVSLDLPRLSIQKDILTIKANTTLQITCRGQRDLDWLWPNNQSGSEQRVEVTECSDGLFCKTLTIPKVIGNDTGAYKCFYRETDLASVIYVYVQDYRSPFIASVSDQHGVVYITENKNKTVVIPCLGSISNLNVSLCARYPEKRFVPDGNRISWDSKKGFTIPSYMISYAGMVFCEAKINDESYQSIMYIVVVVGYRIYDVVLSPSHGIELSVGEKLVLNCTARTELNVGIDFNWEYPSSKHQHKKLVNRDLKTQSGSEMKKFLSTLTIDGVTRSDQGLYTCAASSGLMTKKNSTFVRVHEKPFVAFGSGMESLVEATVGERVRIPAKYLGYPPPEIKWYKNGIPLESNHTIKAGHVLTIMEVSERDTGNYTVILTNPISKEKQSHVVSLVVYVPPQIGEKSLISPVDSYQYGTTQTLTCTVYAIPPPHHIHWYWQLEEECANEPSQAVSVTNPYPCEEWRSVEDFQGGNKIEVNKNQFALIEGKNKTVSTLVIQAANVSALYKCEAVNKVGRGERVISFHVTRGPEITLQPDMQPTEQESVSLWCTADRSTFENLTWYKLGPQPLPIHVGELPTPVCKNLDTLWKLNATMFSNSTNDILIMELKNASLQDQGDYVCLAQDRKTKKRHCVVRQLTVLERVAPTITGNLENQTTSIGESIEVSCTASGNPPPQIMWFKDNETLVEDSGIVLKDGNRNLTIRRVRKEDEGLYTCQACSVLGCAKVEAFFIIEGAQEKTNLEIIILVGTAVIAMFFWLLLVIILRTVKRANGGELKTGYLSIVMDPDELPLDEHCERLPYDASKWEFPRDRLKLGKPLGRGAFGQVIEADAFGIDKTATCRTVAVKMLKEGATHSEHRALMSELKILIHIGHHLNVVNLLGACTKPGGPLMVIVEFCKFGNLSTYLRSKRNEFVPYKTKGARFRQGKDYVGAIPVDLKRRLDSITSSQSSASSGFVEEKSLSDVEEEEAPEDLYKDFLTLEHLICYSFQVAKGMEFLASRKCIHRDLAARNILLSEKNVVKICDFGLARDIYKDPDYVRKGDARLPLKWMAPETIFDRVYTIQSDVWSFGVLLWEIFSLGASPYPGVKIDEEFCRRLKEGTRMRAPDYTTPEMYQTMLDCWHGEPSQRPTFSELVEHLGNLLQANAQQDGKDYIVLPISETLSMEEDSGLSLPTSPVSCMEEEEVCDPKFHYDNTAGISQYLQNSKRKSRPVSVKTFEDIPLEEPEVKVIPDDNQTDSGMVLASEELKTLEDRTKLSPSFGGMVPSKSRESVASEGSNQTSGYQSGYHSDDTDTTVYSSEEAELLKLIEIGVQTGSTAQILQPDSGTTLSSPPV

SMILES | IC50 | Selection ratio (KDR phosphorylation IC50 / c-fms phosphorylation IC50) | selective inhibition of c-fms rather than KDR (in words) (in vitro)
COc1cc2nccc(Oc3cc(C)c(NC(=O)NC(C)c4ccc(F)cc4)cc3C)c2cc1OC (centres unmarked) [Example 7, N-{4-[(6,7-Dimethoxy-4-quinolyl)oxy]-2,5-dimethylphenyl}-N′-[1-(4-fluorophenyl)ethyl]urea] | 3.1 nM | 0 (KDR phosphorylation 50% inhibitory concentration [μM]/c-fms phosphorylation 50% inhibitory concentration [μM] was less than 5) | 
COc1cc2nccc(Oc3cc(C)c(NC(=O)N[C@@H](C)c4ccc(F)cc4)cc3C)c2cc1OC [Example 8, N-{4-[(6,7-Dimethoxy-4-quinolyl)oxy]-2,5-dimethylphenyl}-N′-[(1S)-1-(4-fluorophenyl)ethyl]urea] | 390 nM | 2 (when the value was 10 or more) | 
COc1cc2nccc(Oc3ccc(NC(=O)NC(C)c4ccc(F)cc4)cc3Cl)c2cc1OC (centres unmarked) [Example 10, N-{3-Chloro-4-[(6,7-dimethoxy-4-quinolyl)oxy]phenyl}-N′-[1-(4-fluorophenyl)ethyl]urea] | 3 nM | 0 (KDR phosphorylation 50% inhibitory concentration [μM]/c-fms phosphorylation 50% inhibitory concentration [μM] was less than 5) | 
COc1cc2nccc(Oc3ccc(NC(=O)N[C@H](C)c4ccc(F)cc4)cc3Cl)c2cc1OC [Example 12, N-{3-Chloro-4-[(6,7-dimethoxy-4-quinolyl)oxy]phenyl}-N′-[(1R)-1-(4-fluorophenyl)ethyl]urea] | 2.8 nM | 0 (KDR phosphorylation 50% inhibitory concentration [μM]/c-fms phosphorylation 50% inhibitory concentration [μM] was less than 5) | 
COc1cc2nccc(Oc3ccc(NC(=O)NC(C)c4ccc(F)cc4)c(C)c3)c2cc1OC (centres unmarked) [Example 13, N-{4-[(6,7-Dimethoxy-4-quinolyl)oxy]-2-methylphenyl}-N′-[1-(4-fluorophenyl)ethyl]urea] | < 1 nM | 0 (KDR phosphorylation 50% inhibitory concentration [μM]/c-fms phosphorylation 50% inhibitory concentration [μM] was less than 5) | 
COc1cc2nccc(Oc3ccc(NC(=O)N[C@H](C)c4ccc(F)cc4)c(C)c3)c2cc1OC [Example 15, N-{4-[(6,7-Dimethoxy-4-quinolyl)oxy]-2-methylphenyl}-N′-[(1R)-1-(4-fluorophenyl)ethyl]urea] | < 1 nM | 0 (KDR phosphorylation 50% inhibitory concentration [μM]/c-fms phosphorylation 50% inhibitory concentration [μM] was less than 5) | 
COc1cc(Oc2ccnc3cc(OC)c(OC)cc23)ccc1NC(=O)N[C@H](C)c1ccc(F)cc1 [Example 18, N-{4-[(6,7-Dimethoxy-4-quinolyl)oxy]-2-methoxyphenyl}-N′-[(1R)-1-(4-fluorophenyl)ethyl]urea] | 1.8 nM | 0 (KDR phosphorylation 50% inhibitory concentration [μM]/c-fms phosphorylation 50% inhibitory concentration [μM] was less than 5) | 
COc1cc2nccc(Oc3ccc(NC(=O)NC(C)c4ccc(F)cc4)c(C(F)(F)F)c3)c2cc1OC (centres unmarked) [Example 19, N-[4-[(6,7-Dimethoxy-4-quinolyl)oxy]-2-(trifluoromethyl)phenyl]-N′-[1-(4-fluorophenyl)ethyl]urea] | 1.5 nM | 0 (KDR phosphorylation 50% inhibitory concentration [μM]/c-fms phosphorylation 50% inhibitory concentration [μM] was less than 5) | 
COc1cc2nccc(Oc3ccc(NC(=O)N[C@H](C)c4ccc(F)cc4)c(C(F)(F)F)c3)c2cc1OC [Example 21, N-[4-[(6,7-Dimethoxy-4-quinolyl)oxy]-2-(trifluoromethyl)phenyl]-N′-[(1R)-1-(4-fluorophenyl)ethyl]urea] | 2.1 nM | 0 (KDR phosphorylation 50% inhibitory concentration [μM]/c-fms phosphorylation 50% inhibitory concentration [μM] was less than 5) | 
COc1cc2nccc(Oc3ccc(NC(=O)NC(C)c4ccc(F)cc4)cc3OC)c2cc1OC (centres unmarked) [Example 22, N-{4-[(6,7-Dimethoxy-4-quinolyl)oxy]-3-methoxyphenyl}-N′-[1-(4-fluorophenyl)ethyl]urea] | 3.9 nM | 0 (KDR phosphorylation 50% inhibitory concentration [μM]/c-fms phosphorylation 50% inhibitory concentration [μM] was less than 5) | 

Continued by falling IC50, values first:

IC50 | SMILES | Selection ratio (KDR phosphorylation IC50 / c-fms phosphorylation IC50) | selective inhibition of c-fms rather than KDR (in words) (in vitro)
315 nM | COc1cc(Oc2ccnc3cc(OC)c(OC)cc23)ccc1NC(=O)N[C@@H](C)c1ccc(F)cc1 [Example 17, N-{4-[(6,7-Dimethoxy-4-quinolyl)oxy]-2-methoxyphenyl}-N′-[(1S)-1-(4-fluorophenyl)ethyl]urea] | 3 (when the value was 50 or more) | selectively inhibit c-fms rather than KDR
146 nM | COc1cc2nccc(Oc3ccc(NC(=O)N[C@@H](C)c4ccc(F)cc4)c(C(F)(F)F)c3)c2cc1OC [Example 20, N-[4-[(6,7-Dimethoxy-4-quinolyl)oxy]-2-(trifluoromethyl)phenyl]-N′-[(1S)-1-(4-fluorophenyl)ethyl]urea] | 2 (when the value was 10 or more) | 
123 nM | COc1cc2nccc(Oc3ccc(NC(=O)N[C@@H](C)c4ccc(F)cc4)cc3Cl)c2cc1OC [Example 11, N-{3-Chloro-4-[(6,7-dimethoxy-4-quinolyl)oxy]phenyl}-N′-[(1S)-1-(4-fluorophenyl)ethyl]urea] | 2 (when the value was 10 or more) | 
68.8 nM | COc1cc2nccc(Oc3ccc(NC(=O)N[C@@H](C)c4ccc(F)cc4)c(C)c3)c2cc1OC [Example 14, N-{4-[(6,7-Dimethoxy-4-quinolyl)oxy]-2-methylphenyl}-N′-[(1S)-1-(4-fluorophenyl)ethyl]urea] | 1 (when the value was 5 or more) | 
21.4 nM | COc1cc2nccc(Oc3ccc(NC(=O)N[C@@H](C)c4ccc(F)cc4)c(Cl)c3)c2cc1OC [Example 5, N-{2-Chloro-4-[(6,7-dimethoxy-4-quinolyl)oxy]phenyl}-N′-[(1S)-1-(4-fluorophenyl)ethyl]urea] | 1 (when the value was 5 or more) | 
3.1 nM | COc1cc(Oc2ccnc3cc(OC)c(OC)cc23)ccc1NC(=O)NC(C)c1ccc(F)cc1 (centres unmarked) [Example 16, N-{4-[(6,7-Dimethoxy-4-quinolyl)oxy]-2-methoxyphenyl}-N′-[1-(4-fluorophenyl)ethyl]urea] | 0 (KDR phosphorylation 50% inhibitory concentration [μM]/c-fms phosphorylation 50% inhibitory concentration [μM] was less than 5) | 
2.7 nM | COc1cc2nccc(Oc3cc(C)c(NC(=O)N[C@H](C)c4ccc(F)cc4)cc3C)c2cc1OC [Example 9, N-{4-[(6,7-Dimethoxy-4-quinolyl)oxy]-2,5-dimethylphenyl}-N′-[(1R)-1-(4-fluorophenyl)ethyl]urea] | 0 (KDR phosphorylation 50% inhibitory concentration [μM]/c-fms phosphorylation 50% inhibitory concentration [μM] was less than 5) | 
1.8 nM | COc1cc2nccc(Oc3ccc(NC(=O)N[C@H](C)c4ccc(F)cc4)c(Cl)c3)c2cc1OC [Example 6, N-{2-Chloro-4-[(6,7-dimethoxy-4-quinolyl)oxy]phenyl}-N′-[(1R)-1-(4-fluorophenyl)ethyl]urea] | 0 (KDR phosphorylation 50% inhibitory concentration [μM]/c-fms phosphorylation 50% inhibitory concentration [μM] was less than 5) | 
1.1 nM | COc1cc2nccc(Oc3ccc(NC(=O)NC(C)c4ccc(F)cc4)cc3)c2cc1OC (centres unmarked) [Example 1, N-{4-[(6,7-Dimethoxy-4-quinolyl)oxy]phenyl}-N′-[1-(4-fluorophenyl)ethyl]urea] | 0 (KDR phosphorylation 50% inhibitory concentration [μM]/c-fms phosphorylation 50% inhibitory concentration [μM] was less than 5) | 
1 nM | COc1cc2nccc(Oc3ccc(NC(=O)NC(C)c4ccc(F)cc4)c(Cl)c3)c2cc1OC (centres unmarked) [Example 4, N-{2-Chloro-4-[(6,7-dimethoxy-4-quinolyl)oxy]phenyl}-N′-[1-(4-fluorophenyl)ethyl]urea] | 0 (KDR phosphorylation 50% inhibitory concentration [μM]/c-fms phosphorylation 50% inhibitory concentration [μM] was less than 5) | 
